According to PubChem BioAssay (NCI):
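How tested: cells in 96-well plates exposed to compound for 48 hours at five concentrations. GI50 marks 50% less growth. TGI: concentration producing complete growth inhibition.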

Assays:
Assay in all cases: NCI anticancer screen, dose series, 48 h
[1] = system: DU-145 prostate
[2] = system: M14 melanoma
[3] = system: HS 578T breast
[4] = system: HCC-2998 colon
[5] = system: NCI-H460 lung
[6] = system: MOLT-4 leukemia
[7] = system: 786-0 renal
[8] = system: SK-MEL-28 melanoma
[9] = system: HOP-62 NSCLC
[10] = system: OVCAR-8 ovarian
[11] = system: MALME-3M melanoma
[12] = system: SNB-19 CNS
[13] = system: KM12 colon
[14] = system: SN12C renal
[15] = system: HOP-92 NSCLC
[16] = system: COLO 205 colon
[17] = system: NCI-H23 lung
[18] = system: NCI-H226 lung
[19] = system: OVCAR-3 ovarian
[20] = system: MDA-MB-435
[21] = system: ACHN renal
[22] = system: SK-OV-3 ovarian
[23] = system: K-562 leukemia
[24] = system: CAKI-1 renal
[25] = system: SR leukemia
[26] = system: RXF 393 renal
[27] = system: HT29 colon
[28] = system: HL-60(TB) leukemia
[29] = system: HCT-116 colon
[30] = system: SNB-75 CNS
[31] = system: A549 NSCLC
[32] = system: EKVX NSCLC
[33] = system: SF-295 CNS
[34] = system: UACC-62 melanoma
[35] = system: MDA-MB-231 breast
[36] = system: UACC-257 melanoma
[37] = system: SK-MEL-5 melanoma
[38] = system: PC-3 prostate
[39] = system: LOX IMVI melanoma
[40] = system: OVCAR-5 ovarian
[41] = system: SW-620 colon
[42] = system: A498 renal
[43] = system: T-47D breast
[44] = system: OVCAR-4 ovarian
[45] = system: SK-MEL-2 melanoma
[46] = system: NCI/ADR-RES ovarian
[47] = system: HCT-15 colon
[48] = system: NCI-H522 lung
[49] = system: MCF7 breast
[50] = system: CCRF-CEM leukemia
[51] = system: IGROV1 ovarian
[52] = system: U251 CNS
[53] = system: RPMI-8226 leukemia
[54] = system: SF-268 CNS
[55] = system: UO-31 renal
[56] = system: BT-549 breast
[57] = system: TK-10 renal
[58] = system: SF-539 CNS

## Nc1nccc(-c2c(-c3ccc(F)cc3)nn3cc(C(F)(F)F)ccc23)n1
[1]
  GI50: > 25 µM
  TGI: > 25 µM
[2]
  GI50: > 25 µM
  TGI: > 25 µM
[3]
  GI50: > 25 µM
  TGI: > 25 µM
[4]
  GI50: > 25 µM
  TGI: > 25 µM
[5]
  GI50: > 25 µM
  TGI: > 25 µM
[6]
  GI50: > 25 µM
  TGI: > 25 µM
[7]
  GI50: > 25 µM
  TGI: > 25 µM
[8]
  GI50: > 25 µM
  TGI: > 25 µM
[9]
  GI50: > 21.9 µM
  TGI: > 25 µM
[10]
  GI50: > 25 µM
  TGI: > 25 µM
[11]
  GI50: > 25 µM
  TGI: > 25 µM
[12]
  GI50: > 25 µM
  TGI: > 25 µM
[13]
  GI50: > 25 µM
  TGI: > 25 µM
[14]
  GI50: > 25 µM
  TGI: > 25 µM
[15]
  GI50: 5.75 µM
  TGI: > 25 µM
[16]
  GI50: > 25 µM
  TGI: > 25 µM
[17]
  GI50: > 25 µM
  TGI: > 25 µM
[18]
  GI50: > 25 µM
  TGI: > 25 µM
[19]
  GI50: > 25 µM
  TGI: > 25 µM
[20]
  GI50: > 25 µM
  TGI: > 25 µM
[21]
  GI50: > 25 µM
  TGI: > 25 µM
[22]
  GI50: > 25 µM
  TGI: > 25 µM
[23]
  GI50: > 25 µM
  TGI: > 25 µM
[24]
  GI50: > 25 µM
  TGI: > 25 µM
[25]
  GI50: > 25 µM
  TGI: > 25 µM
[26]
  GI50: > 25 µM
  TGI: > 25 µM
[27]
  GI50: > 25 µM
  TGI: > 25 µM
[28]
  GI50: > 25 µM
  TGI: > 25 µM
[29]
  GI50: > 25 µM
  TGI: > 25 µM
[30]
  GI50: > 19.7 µM
  TGI: > 25 µM
[31]
  GI50: > 25 µM
  TGI: > 25 µM
[32]
  GI50: > 25 µM
  TGI: > 25 µM
[33]
  GI50: > 25 µM
  TGI: > 25 µM
[34]
  GI50: > 25 µM
  TGI: > 25 µM
[35]
  GI50: > 25 µM
  TGI: > 25 µM
[36]
  GI50: > 25 µM
  TGI: > 25 µM
[37]
  GI50: > 25 µM
  TGI: > 25 µM
[38]
  GI50: > 25 µM
  TGI: > 25 µM
[39]
  GI50: > 25 µM
  TGI: > 25 µM
[40]
  GI50: > 25 µM
  TGI: > 25 µM
[41]
  GI50: > 25 µM
  TGI: > 25 µM
[42]
  GI50: > 25 µM
  TGI: > 25 µM
[43]
  GI50: > 25 µM
  TGI: > 25 µM
[44]
  GI50: > 25 µM
  TGI: > 25 µM
[45]
  GI50: > 25 µM
  TGI: > 25 µM
[46]
  GI50: > 25 µM
  TGI: > 25 µM
[47]
  GI50: > 25 µM
  TGI: > 25 µM
[48]
  GI50: > 25 µM
  TGI: > 25 µM
[49]
  GI50: > 25 µM
  TGI: > 25 µM
[50]
  GI50: > 25 µM
  TGI: > 25 µM
[51]
  GI50: > 25 µM
  TGI: > 25 µM
[52]
  GI50: > 25 µM
  TGI: > 25 µM
[53]
  GI50: > 25 µM
  TGI: > 25 µM
[54]
  GI50: > 25 µM
  TGI: > 25 µM
[55]
  GI50: > 25 µM
  TGI: > 25 µM
[56]
  GI50: > 25 µM
  TGI: > 25 µM
[57]
  GI50: > 25 µM
  TGI: > 25 µM
[58]
  GI50: > 25 µM
  TGI: > 25 µM

## C#Cc1ccc(-n2c(/C=C/c3ccc(O)cc3)nc3ncccc3c2=O)cc1
[1]
  GI50: 4.1 µM
  TGI: 76.5 µM
[2]
  GI50: 2.7 µM
  TGI: 8.08 µM
[3]
  GI50: 3.24 µM
  TGI: 30 µM
[4]
  GI50: 25.7 µM
  TGI: > 100 µM
[5]
  GI50: 3.33 µM
  TGI: 14.1 µM
[6]
  GI50: 7.35 µM
  TGI: > 100 µM
[7]
  GI50: 4.88 µM
  TGI: 50.4 µM
[8]
  GI50: 5.97 µM
  TGI: > 100 µM
[9]
  GI50: 5.66 µM
  TGI: 55.7 µM
[10]
  GI50: 4.39 µM
  TGI: 47 µM
[11]
  GI50: 5.13 µM
  TGI: > 100 µM
[12]
  GI50: 6.26 µM
  TGI: > 100 µM
[13]
  GI50: 3.81 µM
  TGI: 60.3 µM
[14]
  GI50: 5.16 µM
  TGI: > 100 µM
[15]
  GI50: 1.8 µM
  TGI: 17.1 µM
[16]
  GI50: > 100 µM
  TGI: > 100 µM
[17]
  GI50: 5.52 µM
  TGI: > 100 µM
[18]
  GI50: 2.58 µM
  TGI: 13.1 µM
[19]
  GI50: 2.41 µM
  TGI: 5.69 µM
[20]
  GI50: 1.6 µM
  TGI: 4.04 µM
[21]
  GI50: 6.31 µM
  TGI: > 100 µM
[22]
  GI50: 3.38 µM
  TGI: 29.1 µM
[23]
  GI50: 4.33 µM
  TGI: > 100 µM
[24]
  GI50: 4.15 µM
  TGI: > 100 µM
[25]
  GI50: 3.54 µM
  TGI: > 100 µM
[26]
  GI50: 1.48 µM
  TGI: 4.41 µM
[27]
  GI50: 52.8 µM
  TGI: > 100 µM
[28]
  GI50: 3.2 µM
  TGI: 30 µM
[29]
  GI50: 5.07 µM
  TGI: > 100 µM
[30]
  GI50: 0.948 µM
  TGI: 32.5 µM
[31]
  GI50: 4.74 µM
  TGI: > 100 µM
[34]
  GI50: 4.01 µM
  TGI: > 100 µM
[35]
  GI50: 11.4 µM
  TGI: > 100 µM
[36]
  GI50: 6.3 µM
  TGI: > 100 µM
[37]
  GI50: 2.24 µM
  TGI: 7.45 µM
[38]
  GI50: 3.87 µM
  TGI: 47.9 µM
[39]
  GI50: 5.35 µM
  TGI: > 100 µM
[40]
  GI50: 32.3 µM
  TGI: > 100 µM
[41]
  GI50: 3.55 µM
  TGI: > 100 µM
[42]
  GI50: 2.48 µM
  TGI: 6.88 µM
[43]
  GI50: 4.63 µM
  TGI: > 100 µM
[44]
  GI50: 22.8 µM
  TGI: > 100 µM
[45]
  GI50: 3.95 µM
  TGI: 40.7 µM
[46]
  GI50: 5.27 µM
  TGI: > 100 µM
[47]
  GI50: 4.65 µM
  TGI: > 100 µM
[48]
  GI50: 2 µM
  TGI: 6.04 µM
[49]
  GI50: 3.04 µM
  TGI: > 100 µM
[50]
  GI50: 3.3 µM
  TGI: > 100 µM
[51]
  GI50: 4.69 µM
  TGI: 35.4 µM
[52]
  GI50: 4.02 µM
  TGI: > 100 µM
[53]
  GI50: 3.41 µM
  TGI: > 100 µM
[54]
  GI50: 5.24 µM
  TGI: 68 µM
[55]
  GI50: 3.79 µM
  TGI: 33.7 µM
[56]
  GI50: 7.51 µM
  TGI: 87.4 µM
[57]
  GI50: 8.78 µM
  TGI: 68.7 µM
[58]
  GI50: 2.12 µM
  TGI: 6.1 µM
